Assay: xn = mol fraction of the nth substance listed

C[N+](=O)[O-] + CC(C)O
viscosity [mPa·s]
Settings	293.15 K	298.15 K	303.15 K	313.15 K
101 kPa, x1 = 0.1361	–	1.599	–	–
101 kPa, x1 = 0.2622	–	1.267	–	–
101 kPa, x1 = 0.3785	–	1.025	–	–
101 kPa, x1 = 0.4866	–	0.8807	–	–
101 kPa, x1 = 0.5871	–	0.7784	–	–
101 kPa, x1 = 0.6805	–	0.7133	–	–
101 kPa, x1 = 0.7685	–	0.6771	–	–
101 kPa, x1 = 0.8503	–	0.6562	–	–
101 kPa, x1 = 0.9277	–	0.6386	–	–
101.33 kPa, x2 = 0.0502	0.629	–	0.561	0.504
101.33 kPa, x2 = 0.1001	0.624	–	0.552	0.494
101.33 kPa, x2 = 0.1501	0.623	–	0.55	0.49
101.33 kPa, x2 = 0.2003	0.633	–	0.554	0.491
101.33 kPa, x2 = 0.25	0.649	–	0.564	0.496
101.33 kPa, x2 = 0.3	0.672	–	0.579	0.507
101.33 kPa, x2 = 0.35	0.701	–	0.597	0.518
101.33 kPa, x2 = 0.4001	0.731	–	0.616	0.535
101.33 kPa, x2 = 0.4501	0.772	–	0.647	0.552
101.33 kPa, x2 = 0.5	0.817	–	0.679	0.574
101.33 kPa, x2 = 0.55	0.868	–	0.716	0.601
101.33 kPa, x2 = 0.6	0.927	–	0.758	0.639
101.33 kPa, x2 = 0.65	1	–	0.811	0.673
101.33 kPa, x2 = 0.7	1.082	–	0.867	0.71
101.33 kPa, x2 = 0.75	1.182	–	0.937	0.764
101.33 kPa, x2 = 0.8	1.326	–	1.044	0.837
101.33 kPa, x2 = 0.85	1.485	–	1.154	0.917
101.33 kPa, x2 = 0.9	1.698	–	1.302	1.023
101.33 kPa, x2 = 0.95	1.988	–	1.503	1.159

CCCCOCCOCCOCCO + ClC=C(Cl)Cl
298.15 K, 101.33 kPa
Settings	viscosity [mPa·s]
x1 = 0.008	0.55
x1 = 0.0207	0.583
x1 = 0.0326	0.62
x1 = 0.0484	0.671
x1 = 0.0692	0.742
x1 = 0.0868	0.809
x1 = 0.1122	0.913
x1 = 0.1472	1.064
x1 = 0.1817	1.242
x1 = 0.2132	1.421
x1 = 0.2487	1.641
x1 = 0.2772	1.839
x1 = 0.3104	2.088
x1 = 0.3418	2.329
x1 = 0.3841	2.663
x1 = 0.4202	2.968
x1 = 0.4555	3.288
x1 = 0.4882	3.585
x1 = 0.5244	3.929
x1 = 0.5826	4.489
x1 = 0.6409	5.1
x1 = 0.6866	5.591
x1 = 0.7428	6.2
x1 = 0.8128	6.968
x1 = 0.8883	7.84
x1 = 0.9261	8.238
x1 = 0.967	8.732
x2 = 0.0136	8.939

From the CheMixHub viscosity set
